Tests used:
[1] = Chemical reactivity of VX-950 with alcohol solvents; assay type: physicochemical; conditions: MeOH, EtOH, iPrOH
Description: The manufacture of an amorphous solid dispersion containing VX-950 presented several challenges. […] Therefore, an appropriate solvent or solvent mixture is crucial to optimizing the processing and production of a solid dispersion. In preferred processes, the solvent includes a volatile solvent. In some embodiments, the solvent includes a mixture of volatile solvents. Preferable solvents include those that can dissolve both VX-950 and the polymers. Suitable solvents include those described above, for example, methylene chloride, acetone, etc. In more preferred processes, the solvent is a mixture of methylene chloride and acetone. The percent weight ratio of methylene chloride:acetone can be for example, about 100:0, about 90:10, about 80:20, about 70:30, about 60:40, and is preferably about 80:20 or about 70:30. The solvent or solvent mixture can also contain a non volatile solvent, such as glacial acetic acid. The organic acid or polar solvent solvent can be, e.g., up to about 5%, up to about 10%, or up to about 15% by weight of the solvent mixture. For example, a solvent mixture can contain a percent weight ratio of methylene chloride:acetone:glacial acetic acid of about 67:28:5 or 63:27:10. […] Such a solvent should not contain an OH group or a similarly reactive moiety. In these processes, therefore, a preferred solvent is other than an alcohol.

in vivo = conditions: rat, po
[2] = assay type: physicochemical
Description: The manufacture of an amorphous solid dispersion containing VX-950 presented several challenges. […] Therefore, an appropriate solvent or solvent mixture is crucial to optimizing the processing and production of a solid dispersion.

For `CCC[C@H](NC(=O)[C@@H]1[C@H]2CCC[C@H]2CN1C(=O)[C@@H](NC(=O)[C@@H](NC(=O)c1cnccn1)C1CCCCC1)C(C)(C)C)C(=O)C(=O)NC1CC1` [VX-950], the “chemical reactivity with alcohols” value [1] was “has shown chemical reactivity with some alcohols”, the bioavailability (in vivo) was under 0.5% and the aqueous solubility [2] was “virtually undetectable”. The “pH dependence of aqueous solubility” value [2] was “not pH-dependent”, the solubility in water [2] was “highly insoluble” and the “solubility in water or most other conventional organic solvents” value [2] was “does not dissolve to a significant amount”.
